According to article PMC7215714:

Tests used:
[1] = system: C2C12 cells; set-up: method as in PMID 30925718; conditions: C2C12 mouse skeletal muscle cell line; cited from earlier work
[2] = system: mitochondria obtained from the hippocampus, cortex, and cerebellum of rats; conditions: cited from earlier work
[3] = system: SH-SY5Y cells; set-up: method as in PMID 32295288; conditions: cited from earlier work
[4] = system: caspases 3 and 9 in SH-SY5Y cells; assay: Western blotting of cleaved caspase 3 and 9; assay type: cell-based, human; conditions: 2000 µM, 6 h, both differentiated and undifferentiated SH-SY5Y cells
Procedure: Amiodarone 50 μM and MDMA 1000 μM were used as negative controls. After treatment, cells were washed twice with cold PBS buffer (pH 7.4) and incubated with 70 μL of cell lysis buffer (radioimmunoprecipitation assay (RIPA) buffer supplemented with complete protease inhibitor (Roche Diagnostics, Mannheim, Germany)) for 15 min on ice. Then, the cell lysates were collected into Eppendorf tubes and centrifuged at 1600 g for 20 min. […] The protein extracts (18 μg per lane) were loaded, separated by SDS/PAGE using 4–12% NuPAGE Bis-Tris gels (Invitrogen, Basel, Switzerland), and then transferred to nitrocellulose membranes by the Trans-Blot Turbo Blotting System (Bio-Rad, Cressier, Switzerland). […] Protein expression was quantified using the Fusion Pulse TS device (Vilber Lourmat, Oberschwaben, Germany).

[5] = cited from earlier work

SMILES: CCCC(C(=O)c1ccc2ccccc2c1)N1CCCC1 (stereo not shown) [naphyrone]
- Electron transport chain complexes with reduced activity [1]: complex II

SMILES: CNC(C)Cc1ccc2c(c1)OCO2 (stereo not shown) [MDMA, 3,4-methylenedioxymethamphetamine]
- Electron transport chain complexes with reduced activity [1]: reduced the activity of complexes I and III

SMILES: CNC(C)C(=O)c1ccc(C)cc1 (stereo not shown) [4-MMC, 4-methylmethcathinone]
- Effect on mitochondrial ROS levels and outer mitochondrial membrane [2]: increases mitochondrial ROS levels and damages the outer mitochondrial membrane

SMILES: CNC(C)C(=O)c1ccc(Cl)cc1 (stereo not shown) [4-CMC, 4-chloromethcathinone]
- Effect on autophagy [3]: stimulates autophagy
- Expression of cleaved caspase 9 [4]: increased the expression of cleaved caspase 9

SMILES: CC(N)Cc1ccccc1 (stereo not shown) [amphetamine, Amphetamine]
- Plasma concentrations reached after a pharmacological dose [5]: low micromolar range

SMILES: CCCC(C(=O)c1ccccc1)N1CCCC1 (stereo not drawn) [α-PVP, α-pyrrolidinopentiophenone]
- Electron transport chain complexes with reduced activity [1]: complex I
